Entries after “also recorded” stand apart in the source; their conditions may differ.
Columns and labels:
[1] = target: T1, MALT1 (Homo sapiens, UniProt Q9UDY8); assay: Example IC50 and IC90 values of MALT1 inhibitors (blood concentration targets); format: cell-based; conditions: example values, blood concentration target; read-out: IC90
T1 sequence (Q9UDY8 1-824): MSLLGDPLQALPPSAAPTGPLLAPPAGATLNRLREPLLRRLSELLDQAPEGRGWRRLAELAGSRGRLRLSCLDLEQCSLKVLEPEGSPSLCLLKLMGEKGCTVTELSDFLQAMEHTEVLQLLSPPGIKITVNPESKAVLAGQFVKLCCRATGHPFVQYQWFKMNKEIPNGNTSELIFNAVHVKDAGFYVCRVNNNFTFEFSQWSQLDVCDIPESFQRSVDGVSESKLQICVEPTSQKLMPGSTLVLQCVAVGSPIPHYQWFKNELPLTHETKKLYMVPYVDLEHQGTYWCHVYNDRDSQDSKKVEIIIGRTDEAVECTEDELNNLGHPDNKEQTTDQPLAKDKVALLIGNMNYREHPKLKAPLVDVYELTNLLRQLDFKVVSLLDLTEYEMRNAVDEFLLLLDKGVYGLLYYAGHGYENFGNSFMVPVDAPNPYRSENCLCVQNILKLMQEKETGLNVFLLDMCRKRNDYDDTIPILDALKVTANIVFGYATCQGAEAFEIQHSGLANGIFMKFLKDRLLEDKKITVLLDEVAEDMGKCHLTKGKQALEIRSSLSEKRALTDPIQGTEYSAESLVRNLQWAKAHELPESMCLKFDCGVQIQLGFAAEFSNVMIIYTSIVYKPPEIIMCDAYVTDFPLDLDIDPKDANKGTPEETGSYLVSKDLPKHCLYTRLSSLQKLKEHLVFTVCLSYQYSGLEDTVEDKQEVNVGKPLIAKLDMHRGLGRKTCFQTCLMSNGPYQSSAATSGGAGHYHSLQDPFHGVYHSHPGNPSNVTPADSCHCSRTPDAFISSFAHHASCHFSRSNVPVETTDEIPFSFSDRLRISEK
From the text: In various embodiments, the plasma PK profile of the MALT1 inhibitor refers to a time over an IC50 blood concentration target following administration to the subject. As used herein, a “time over an IC50 blood concentration target” refers to a period of time following administration in which a concentration of the MALT1 inhibitor in the subject's blood is above the IC50 value.
In various embodiments, the plasma PK profile of the MALT1 inhibitor refers to a time over an IC90 blood concentration target following administration to the subject. As used herein, a “time over an IC90 blood concentration target” refers to a period of time following administration in which a concentration of the MALT1 inhibitor in the subject's blood is above the IC90 value.

[2] = test system: splenic Tregs; assay: Rat CIA model: splenic Treg levels; format: in vivo; conditions: for reduction in the Treg levels: in comparison to vehicle
Protocol: For isolation of synovial fluid prior to study termination, animals were anesthetized and the skin on the hind limbs were separated to ensure exposure of knee joint. A small incision was made near the top of the knee joint and the articular cavity was rinsed with 60 μl phosphate-buffered saline (PBS) for 2 time and ˜50-60 μl synovial fluid was collected. The synovial fluid samples were spun down, and the supernatant stored at −80° C. prior to cytokine analysis. At study termination, plasma was prepared from whole blood and stored at −80° C. prior to cytokine analysis and measurement of total and anti-collagen IgG. Single cell suspensions were prepared from harvested spleens following standard methods and Treg frequencies measured by flow cytometry-based immunophenotyping of freshly isolated cells.
Harvested spleens were homogenized in cold PBS and cellular debris removed by passing through a […] cell strainer. The cell suspension was centrifuged at 300×g for 5 min at 4° C. and the pellet was treated with 1×RBC lysis buffer per manufacturer's protocol (Thermofisher). The washed cell pellet was resuspended for a final concentration of 5-10×10^6 cells/ml and 100 μl of cell suspension was processed for immunophenotyping. […] Cells were washed with cold FACS wash buffer (BD) and fixed with 1×FoxP3/Transcription Factor Fixation Buffer (Thermofisher) for overnight at 4° C. […] Cells were washed 2-3× with the permeabilization and wash buffer as mentioned earlier, and finally resuspended in FACS wash buffer. Samples were acquired on a BD LSRFortessa flow cytometer and data analyzed using the FlowJo software (BD).

[3] = test system: rat collagen induced arthritis (CIA) model; assay: Rat collagen-induced arthritis model: clinical score; conditions: for reduction in the clinical score: in comparison to the vehicle treatment
From the text: Adult female Lewis Rats (180-200 g body weight) were immunized subcutaneously with Type II bovine collagen/Incomplete Freund's Adjuvant emulsion on Day 0 and Day 7. On Day 14 rats were randomized based on clinical disease scores in different treatment groups. Rats received either once daily (q.d) dose of compounds via oral gavage or Vehicle (0.5% Carboxymethylcellulose-Na+0.5% Tween 80 in water, suspension) for 2 weeks. Naïve rats used as controls.

[4] = test system: Tregs; assay: Naïve mice: Treg levels after 4 weeks of dosing; format: in vivo; conditions: 100 mg/kg dose, in comparison to vehicle control
Protocol: Mice were dosed for 4 weeks with REO-751 or REO-095 and splenocytes were analyzed for Treg levels. Specifically, REO-751 or REO-095 MALT1 inhibitors were dosed at one of 1 mg/kg (mpk), 10 mg/kg (mpk), or 100 mg/kg (mpk).

[5] = target: T1, MALT1; assay: IC50 and Kd values of MALT1 inhibitors (FIG. 17C)
[6] = test system: sclerodermatous GVHD (scGVHD) model; assay: Mouse GVHD (scGVHD) model: GVHD score and progression-free survival; format: in vivo, mice; conditions: 100 mg/kg orally once daily days 21-56, at the end (Day 56)
Protocol: In this example, REO-751 MALT1 inhibitor at a dose of 100 mg/kg was administered to mice of a graft versus host disease (GVHD) model to investigate the impact of the administration of the MALT1 inhibitor. The effects of MALT1 inhibitors were evaluated in scGVHD and delayed-type hypersensitivity (DTH) models. For the scGVHD model, bone marrow (1E7 cells) and splenocytes (4E6) from LP/J donors were transferred to C57Bl/6 recipients that had received 8.5. Gy of total irradiation on the previous day. For the DTH model, female Balb/c mice were immunized with keyhole limpet hemocyanin (KLH) subcutaneously on day 0 and challenged with KLH intradermally 7 days later.
(§1) At time=0, mice were dosed with 1) naive, 2) vehicle, 3) REO-751 MALT1 inhibitor (100 mg/kg), or 4) ruxolitinib (60 mg/kg). […] GVHD scores were determined by monitoring the behavior of the mice post-administration according to the following grading system.
FIGS. 22A-22F show results following administration of a MALT1 inhibitor. Here, “Cpd1” and Cpd2” as shown in FIGS. 22A-22F refer to REO-751 MALT1 inhibitor. FIGS. 22A and 22B show overall survival (OS) and progression-free survival (PFS) Kaplan Meier curves, respectively, in a murine model of sclerodermatous GVHD (scGVHD) following administration of a MALT1 inhibitor. […]

[7] = test system: spleen TFH cells, GC B cells, Treg cells; assay: Mouse GVHD model: spleen cell populations (TFH, GC B cells, Tregs); format: in vivo, mice
From the text: Here, FIGS. 22C-22E show percentages of each cell population in spleen, as measured by flow cytometry.

[8] = Mouse GVHD model: pharmacokinetics; format: in vivo, mice; conditions: C57Bl/6, blood, oral; 100 mg/kg, on Day 55, mouse GVHD model; read-out: concentration at 24 hours post-administration
Protocol: as §1

[9] = test system: IL-2R signaling (pSTAT5); conditions: 1 μM, positive control
Protocol: Purified Tregs were expanded as indicated above. […] Tregs were then stimulated with 25 IU IL-2 (Peprotech) for 15 min, followed by fixation with 2% paraformaldehyde. […] Levels of pSTAT5 were analyzed on a BD LSRFortessa flow cytometer.
Next, the impact of MALT1i on IL2R signaling was investigated. IL-2R signaling results in phosphorylation of STAT5 (pSTAT5) and is dependent on JAK1/3. Therefore, a flow cytometric readout of pSTAT5 was used to measure IL-2R activity and the JAK1/3-inhibitor tofacitinib served as a positive control for inhibition of pSTAT5.

| IC90 [1] [µM] | Compound | reduction in the clinical score ([3]; 3 mg/kg dose) [%] | reduction in the clinical score ([3]; 10 mg/kg dose) [%] | reduction in the clinical score ([3]; 30 mg/kg dose) [%] | dose-dependent efficacy (FIG. 12A) ([3]; rat CIA model) | log10AUC value at ~50% reduction in the clinical score ([3]; rat CIA model) [μg*hr/mL] | reduction of Treg levels [4] [%] | reduction in the Treg levels ([2]; 3 mg/kg dose, CIA rats) [%] | reduction in the Treg levels ([2]; 10 mg/kg dose, CIA rats) [%] | reduction in the Treg levels ([2]; 30 mg/kg dose, CIA rats) [%] | also measured |
| --- | --- | --- | --- | --- | --- | --- | --- | --- | --- | --- | --- |
| 4.95 | O=C(Nc1ccnc(C(F)(F)F)c1)Nc1cnn2ccc(Cl)c2c1C1CC1 [REO-703] | 35 | 57 | 60 | showed efficacy in a rat CIA model in a dose-dependent manner | ~1.2 | – | – | – | – | reduction in the Treg levels ([2]; CIA rats, 3, 10 and 30 mg/kg): none of the doses of REO-703 resulted in a statistically significant reduction; also recorded: did not exhibit reduction of Tregs |
| – | CO[C@@H](C)c1c(NC(=O)Nc2cnc(-n3nccn3)c(Cl)c2)cnc2cc(Cl)nn12 [REO-751] | – | – | – | – | – | 76 | – | – | – | potency (IC50 values and Kd value) in comparison to REO-095 [5]: increased potency; mice achieving progression free survival [6]: 40%; difference in Treg with treatment [7]: No difference; concentration at 24 h [8]: 385 ng/mL |
| – | O=C(Nc1ccnc(C(F)(F)F)c1)c1cnn(-c2cccc3c(=O)[nH]ccc23)c1C(F)(F)F [REO-095] | – | – | – | – | – | 32 | – | – | – | – |
| – | C[C@@H]1CCN(C(=O)CC#N)C[C@@H]1N(C)c1ncnc2[nH]ccc12 [tofacitinib, reference compound] | – | – | – | – | – | – | – | – | – | basal levels of pSTAT5 in Tregs [9]: reduced; reduction in the endpoint clinical score ([3]; 5 mg/kg dose): 75% |
| 5.78 | CO[C@@H](C)c1c(Nc2ccc([C@H](N(C)C(=O)C3CCS(=O)(=O)CC3)C(F)(F)F)cc2)cnc2cc(Cl)nn12 [REO-528] | 24 | 59 | 74 | showed efficacy in a rat CIA model in a dose-dependent manner | ~1.2 | – | 3 | 36 | 37 | dose-dependent reduction of Tregs (FIG. 12B) ([2]; rat CIA model): dose-dependent reduction of Tregs was observed; log10Cmax value at ~40% reduction in Treg levels ([2]; rat CIA model): ~3.9 ng/mL; log10Ctrough value at ~50% reduction in Treg levels ([2]; rat CIA model): ~2.6 ng/mL; qualitative Treg impact (FIG. 11) ([2]; rat CIA model): low Treg impact; log10Cmax value at ~50% reduction in the clinical score ([3]; rat CIA model): ~3.3 ng/mL; log10Ctrough value at ~50% reduction in the clinical score ([3]; rat CIA model): ~2.2 ng/mL; qualitative efficacy (FIG. 11) ([3]; rat CIA model): high efficacy |
| – | CO[C@@H](C)c1c(Nc2ccc([C@H](N(C)C(=O)C3CCN(C(C)=O)CC3)C(F)(F)F)cc2)cnc2cc(Cl)nn12 [REO-076] | 23 | 42 | 74 | – | ~1.85 | – | 24 | 30 | 40 | log10AUC value at ~40% reduction in Treg levels ([2]; rat CIA model): ~2.25 μg*hr/mL |
